# Source: patent publication US8530663B2, “1-(2-phenoxymethylheteroaryl)piperidine and piperazine compounds” (Theravance, Inc., priority 2010, dated 2013)
# Marks after values point to notes of the source that are not given here.
# Tests used:
# hNET [1] = biological target: T1, hNET (Homo sapiens, UniProt P23975); assay: hNET membrane radioligand binding assay (3H-nisoxetine); conditions: hNET membranes, 1.0 nM 3H-nisoxetine; for Ki: read-out: NET pKi (converted)
# T1 construct: expressed in transfected cells; host or cells: HEK-293
# Method: (§1) Membrane radioligand binding assays were used to measure inhibition of labeled ligand (^3H-citalopram or ^3H-nisoxetine or ^3H-WIN35428) binding to membranes prepared from cells expressing the respective human recombinant transporter (hSERT or hNET or hDAT) in order to determine the pKi values of test compounds at the transporters.
# (§2) Recombinant human embryonic kidney (HEK-293) derived cell lines stably transfected with hSERT or hNET, respectively, were grown in DMEM medium supplemented with 10% dialyzed FBS (for hSERT) or FBS (for hNET), 100 μg/ml penicillin, 100 μg/ml streptomycin, 2 mM L-glutamine and 250 μg/ml of the aminoglycoside antibiotic G418, in a 5% CO2 humidified incubator at 37° C. When cultures reached 80% confluence, the cells were washed thoroughly in PBS (without Ca^2+ and Mg^2+) and lifted with 5 mM EDTA in PBS. Cells were pelleted by centrifugation, resuspended in lysis buffer (10 mM Tris-HCl, pH7.5 containing 1 mM EDTA), homogenized, pelleted by centrifugation, then resuspended in 50 mM Tris-HCl, pH 7.5 and 10% sucrose at 4° C. Protein concentration of the membrane suspension was determined using a Bio-Rad Bradford Protein Assay kit. Membranes were snap frozen and stored at −80° C. Chinese hamster ovary membranes expressing hDAT (CHO-DAT) were purchased from PerkinElmer and stored at −80° C.
# (§3) Binding assays were performed in a 96-well assay plate in a total volume of 200 μL assay buffer (50 mM Tris-HCl, 120 mM NaCl, 5 mM KCl, pH 7.4) with 0.5, 1, and 3 μg membrane protein, for SERT, NET and DAT, respectively.
# (§4) Stock solutions (10 mM in DMSO) of test compound were prepared and serial dilutions made using Dilution Buffer (50 mM Tris-HCl, 120 mM NaCl, 5 mM KCl, pH 7.4, 0.1% BSA, 400 μM ascorbic acid).
# (§5) Following a 60 minute incubation at 22° C. (or a period sufficient to reach equilibrium), the membranes were harvested by rapid filtration over a 96-well UniFilter GF/B plate, pretreated with 0.3% polyethyleneimine, and washed 6 times with 300 μl wash buffer (50 mM Tris-HCl, 0.9% NaCl, pH 7.5 at 4° C.). Plates were dried overnight at room temperature, ˜45 μl of MicroScint™-20 (Perkin Elmer) added and bound radioactivity quantitated via liquid scintillation spectroscopy. Inhibition curves and saturation isotherms were analyzed using GraphPad Prism Software package (GraphPad Software, Inc., San Diego, Calif.). IC50 values were generated from concentration response curves using the Sigmoidal Dose Response (variable slope) algorithm in Prism GraphPad. Kd and Bmax values for the radioligand were generated from saturation isotherms using the Saturation Binding Global Fit algorithm in Prism GraphPad. pKi (negative decadic logarithm of Ki) values for test compounds were calculated from the best-fit IC50 values, and the Kd value of the radioligand, using the Cheng-Prusoff equation (Cheng & Prusoff (1973) Biochem. Pharmacol. 22(23):3099-3108): Ki=IC50/(1+[L]/Kd), where [L]=concentration radioligand.
# hSERT [2] = biological target: T2, hSERT (Homo sapiens, UniProt P31645); assay: hSERT membrane radioligand binding assay (3H-citalopram); conditions: hSERT membranes, 1.0 nM 3H-citalopram; for Ki: read-out: SERT pKi (converted)
# T2 construct: expressed in transfected cells; host or cells: HEK-293
# Method: as §1, §2, §3, §4, §5
# hSERT [3] = biological target: T2, hSERT; assay: fluorescence-based serotonin reuptake assay (Tsuruda et al. 2010; data with asterisk); format: cell-based; conditions: serotonin reuptake inhibition, fluorescence-based assay (data indicated by an asterisk)
# hNET [4] = biological target: T1, hNET; assay: fluorescence-based norepinephrine reuptake assay (Tsuruda et al. 2010; data with asterisk); format: cell-based; conditions: norepinephrine reuptake inhibition, fluorescence-based assay (data indicated by an asterisk)
# T1 sequence (P23975 whole entry): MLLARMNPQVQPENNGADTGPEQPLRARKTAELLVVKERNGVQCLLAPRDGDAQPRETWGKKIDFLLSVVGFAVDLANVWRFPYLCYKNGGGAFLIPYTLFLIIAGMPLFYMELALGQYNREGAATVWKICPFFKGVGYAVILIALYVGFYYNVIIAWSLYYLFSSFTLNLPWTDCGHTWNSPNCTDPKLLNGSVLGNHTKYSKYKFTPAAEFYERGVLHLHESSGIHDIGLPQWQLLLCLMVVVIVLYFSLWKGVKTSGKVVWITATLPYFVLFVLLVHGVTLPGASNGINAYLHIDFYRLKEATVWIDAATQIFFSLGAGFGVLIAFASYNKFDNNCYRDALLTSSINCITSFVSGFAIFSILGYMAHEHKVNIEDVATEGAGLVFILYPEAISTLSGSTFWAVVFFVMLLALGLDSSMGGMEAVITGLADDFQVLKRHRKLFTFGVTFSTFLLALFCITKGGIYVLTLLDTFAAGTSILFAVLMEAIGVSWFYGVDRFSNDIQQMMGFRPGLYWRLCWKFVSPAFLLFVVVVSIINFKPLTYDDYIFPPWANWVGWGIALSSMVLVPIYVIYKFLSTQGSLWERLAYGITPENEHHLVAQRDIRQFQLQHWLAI
# T2 sequence (P31645 whole entry): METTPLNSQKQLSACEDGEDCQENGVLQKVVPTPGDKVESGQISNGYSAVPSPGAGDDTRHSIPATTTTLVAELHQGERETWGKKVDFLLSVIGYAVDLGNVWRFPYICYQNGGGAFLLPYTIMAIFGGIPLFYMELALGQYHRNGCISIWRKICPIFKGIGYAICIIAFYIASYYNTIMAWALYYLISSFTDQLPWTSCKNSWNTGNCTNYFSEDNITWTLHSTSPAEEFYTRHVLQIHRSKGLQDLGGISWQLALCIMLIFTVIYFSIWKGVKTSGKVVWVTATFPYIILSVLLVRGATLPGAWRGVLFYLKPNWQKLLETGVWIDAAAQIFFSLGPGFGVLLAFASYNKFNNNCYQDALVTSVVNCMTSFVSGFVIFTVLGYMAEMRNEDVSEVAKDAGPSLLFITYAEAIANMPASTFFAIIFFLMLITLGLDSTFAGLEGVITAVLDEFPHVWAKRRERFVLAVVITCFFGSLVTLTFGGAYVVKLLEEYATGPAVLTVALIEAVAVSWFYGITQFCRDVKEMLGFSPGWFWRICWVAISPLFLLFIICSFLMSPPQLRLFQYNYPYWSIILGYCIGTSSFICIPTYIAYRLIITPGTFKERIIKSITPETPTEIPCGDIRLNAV
Structure (SMILES),NET pKi (hNET [1]),SERT pKi (hSERT [2]),further results
Fc1cccc(F)c1OCc1ncccc1C1CCNCC1 [Example 2-4],≧7.0,≧6.0,–
Clc1cccc(Cl)c1OCc1sccc1C1CCNCC1 [Example 25-1],≧5.0,≧7.0,–
Fc1ccc(F)c(OCc2ncccc2C2CCNCC2)c1F [Example 2-7],≧6.0,≧7.0,–
"Fc1cc(F)c(OCc2ncccc2C2CCNCC2)c(F)c1 [Example 1, 2-(2,4,6-Trifluorophenoxymethyl)-1′,2′,3′,4′,5′,6′-hexahydro[3,4]bipyridinyl]",–,–,Ki (hNET [1]): ≤ 0.1 µM; Ki (hSERT [2]): ≤ 0.1 µM
Fc1cc(Cl)cc(F)c1OCc1ncccc1C1CCNCC1 [Example 2-8],≧6.0,≧7.0,–
Fc1cc(Cl)cc(F)c1OCc1ccncc1C1CCNCC1 [Example 10-8],≧7.0,≧7.0,–
c1ccc(OCc2ncccc2C2CCNCC2)cc1 [Example 2-1],≧6.0,≧5.0,–
Fc1ccc(F)c(OCc2ccncc2C2CCNCC2)c1F [Example 10-7],≧7.0,≧7.0,–
Fc1ccc(F)c(OCc2cnccc2C2CCNCC2)c1F [Example 6-6],≧6.0,≧7.0,–
Fc1ccccc1OCc1cccnc1C1CCNCC1 [Example 14-2],≧7.0,≧6.0,–
Fc1ccccc1OCc1ccsc1C1CCNCC1 [Example 31-1],≧7.0,≧6.0,–
Fc1cccc(Cl)c1OCc1cccnc1C1CCNCC1 [Example 14-5],≧7.0,≧7.0,–
Fc1cccc(F)c1OCc1sccc1C1CCNCC1 [Example 25-2],≧6.0,≧6.0,–
Fc1cccc(Cl)c1OCc1sccc1C1CCNCC1 [Example 25-3],≧5.0,≧7.0,–
Fc1ccc(F)c(OCc2ccncc2C2CCNCC2)c1Cl [Example 10-9],≧7.0,≧7.0,–
Fc1cccc(F)c1OCc1occc1C1CCNCC1 [Example 18-3],–,–,SERT pIC50 (hSERT [3]): ≧6.0*; NET pIC50 (hNET [4]): ≧5.0*
Fc1cccc(F)c1OCc1ccncc1C1CCNCC1 [Example 10-3],≧7.0,≧7.0,–
Clc1cccc(OCc2cscc2C2CCNCC2)c1 [Example 28-2],≧6.0,≧7.0,–
c1ccc(OCc2ccoc2C2CCNCC2)cc1 [Example 22-1],–,–,SERT pIC50 (hSERT [3]): ≧6.0*; NET pIC50 (hNET [4]): ≧7.0*
Clc1cccc(Cl)c1OCc1cccnc1C1CCNCC1 [Example 14-6],≧7.0,≧7.0,–
Fc1ccccc1OCc1cnccc1C1CCNCC1 [Example 6-2],≧6.0,≧7.0,–
"Fc1cccc(F)c1OCc1cnccc1C1CCNCC1 [Example 5, 3′-(2,6-Difluorophenoxymethyl)-1,2,3,4,5,6-hexahydro[4,4′]bipyridinyl]",–,–,Ki (hNET [1]): ≤ 0.1 µM; Ki (hSERT [2]): ≤ 0.1 µM
Fc1ccc(F)c(OCc2sccc2C2CCNCC2)c1F [Example 25-4],≧6.0,≧6.0,–
Fc1cccc(Cl)c1OCc1cnccc1C1CCNCC1 [Example 6-4],≧7.0,≧7.0,–

Structure (SMILES),NET pKi (hNET [1]),SERT pKi (hSERT [2]),further results
Clc1cccc(Cl)c1OCc1ncccc1C1CCNCC1 [Example 2-6],≧7.0,≧7.0,–
c1ccc(OCc2cnccc2C2CCNCC2)cc1 [Example 6-1],≧5.0,≧6.0,–
Fc1ccccc1OCc1cscc1C1CCNCC1 [Example 28-1],≧7.0,≧7.0,–
Clc1cccc(Cl)c1OCc1ccncc1C1CCNCC1 [Example 10-5],≧7.0,≧7.0,–
Clc1cccc(OCc2cnccc2C2CCNCC2)c1 [Example 6-3],≧5.0,≧7.0,–
Clc1cccc(OCc2ncccc2C2CCNCC2)c1 [Example 2-3],≧5.0,≧7.0,–
"c1ccc(OCc2ccsc2C2CCNCC2)cc1 [Example 30, 4-(3-Phenoxymethylthiophen-2-yl)piperidine]",–,–,Ki (hNET [1]): ≤ 0.1 µM; Ki (hSERT [2]): ≤ 0.1 µM
Fc1ccc(F)c(OCc2cscc2C2CCNCC2)c1Cl [Example 28-5],≧7.0,≧7.0,–
c1ccc(OCc2cccnc2C2CCNCC2)cc1 [Example 14-1],≧6.0,≧6.0,–
Fc1cccc(Cl)c1OCc1ncccc1C1CCNCC1 [Example 2-5],≧7.0,≧7.0,–
Clc1cccc(OCc2cccnc2C2CCNCC2)c1 [Example 14-3],≧5.0,≧7.0,–
Clc1cccc(OCc2ccncc2C2CCNCC2)c1 [Example 10-6],≧6.0,≧7.0,–
Fc1cc(F)c(OCc2cnccc2C2CCNCC2)c(F)c1 [Example 6-7],≧7.0,≧7.0,–
Fc1ccccc1OCc1ncccc1C1CCNCC1 [Example 2-2],≧7.0,≧6.0,–
Fc1cc(Cl)cc(F)c1OCc1cccnc1C1CCNCC1 [Example 14-8],≧7.0,≧7.0,–
Fc1ccc(F)c(OCc2cnccc2C2CCNCC2)c1Cl [Example 6-9],≧7.0,≧7.0,–
Fc1cc(Cl)cc(F)c1OCc1cscc1C1CCNCC1 [Example 28-4],≧7.0,≧7.0,–
Fc1ccc(F)c(OCc2cccnc2C2CCNCC2)c1F [Example 14-7],≧7.0,≧7.0,–
Fc1cc(Cl)cc(F)c1OCc1ccsc1C1CCNCC1 [Example 31-4],≧7.0,≧7.0,–
Fc1ccccc1OCc1ccncc1C1CCNCC1 [Example 10-2],≧7.0,≧7.0,–
c1ccc(OCc2ccncc2C2CCNCC2)cc1 [Example 10-1],≧6.0,≧6.0,–
Fc1cccc(F)c1OCc1cccnc1C1CCNCC1 [Example 14-4],≧7.0,≧6.0,–
Clc1cccc(Cl)c1OCc1cnccc1C1CCNCC1 [Example 6-5],≧7.0,≧7.0,–
Fc1cc(Cl)cc(F)c1OCc1cnccc1C1CCNCC1 [Example 6-8],≧6.0,≧7.0,–
